In patent publication US20260117070A1, “NEAR-INFRARED FLUORESCENT HEPTAMETHINE DYE CONJUGATES WITH FAVORABLE BLEACHING PROPERTIES” (HELMHOLTZ ZENTRUM MÜNCHEN DEUTSCHES FORSCHUNGSZENTRUM FÜR …, priority 2022, published 2026):

Assays:
[1] = Procedure for determining photostability (bleaching in vitro, continuous 785 nm irradiation); assay type: physicochemical
Protocol: 4C): Bleaching in vitro: Capillaries filled with 2.5 μM solutions in serum were continuously irradiated using a 785 nm laser (100 mW/cm^2) and frames were acquired for 20 minutes. Bleaching kinetics were extracted by analyzing the mean counts in an ROI overtime
Imaging was performed on a custom-built setup. LUMICS laser unit LU0785DLU250-S70AN03 (25 W) 785 nm″ was used for excitation. Laser was externally controlled using a LUMICS laser diode control system. Laser output was coupled in a 4×1 fan-out fiber-optic bundle (THORLABS BF46LSO1) of 600 μm core diameter for each optical path. The output from the fiber was fixed in an excitation cube (THORLABS KCB1EC/M), reflected off of a mirror (THORLABS BBE1-E03), and passed through a positive achromat (THORLABS AC254-050-B), SP filter (THORLABS FESH800) and an engineered diffuser (THORLABS ED1-S20-MD or ED1-S50-MD) to provide uniform illumination over the working area. In a typical experiment, the excitation flux in the field of view was adjusted to be close to 100 mWcm^−2. Power density was determined using a THORLABS energy meter console PM100D in combination with a THORLABS S130C sensor (measurement uncertainty of ±3%). The working area was covered by blackout fabric (THORLABS BK5). Emitted light was directed through two filters (THORLABS FELH800) screwed onto a EDMUND OPTICS Acktar Hexa-Black 25 mm noise reduction extension tube, via a C-mount camera lens (NAVITAR SWIR-35) onto an NIR-camera (PCO Edge 4.2 or Prime BSI). The software μManager was used to externally control the camera. The assembly was partially enclosed to avoid excess light while enabling manipulation of the field of view during operation.
For each dye (conjugate), solutions in H2O and FBS with an OD (785 nm)<1.0 in a 1 cm cuvette (HELLMA 115B-QS) were prepared. […] In order to be able to make useful comparison between different samples and experiments, the time axis was converted into a number of absorbance events by multiplication with the “absorptions per molecule per second”.

MDA-MB-468 cells = assay: In vivo distribution of NIR-fluorescent Panitumumab conjugates in tumor bearing mice; conditions: 24 hrs after intravenous injection; 3 μg or 100 μg dose
Text: FIG. 5: Comparing Pan-sNIR (NIR-fluorescent Panitumumab) and Pan-IRDye800CW in tumor bearing mice post intraveneous injection. Mice were generated by subcutaneous implantation of MDA-MB-468 cells.

Compound | more photostable than NIR, IRDye®8000W ([1]; fetal bovine serum (FBS)) | more stable than ICG ([1]; fetal bovine serum (FBS)) | bleaching slower than NIR, ICG and IRDye®8000W ([1]; water) | tumor signal than/over the liver (MDA-MB-468 cells)
C#CCCCCNC(=O)C(=C\C=C\C1=[N+](CCCCS(=O)(=O)[O-])c2ccc(S(=O)(=O)[O-])cc2C1(C)C)/C=C/C=C1/N(CCCCS(=O)(=O)[O-])c2ccc(S(=O)(=O)[O-])cc2C1(C)C.[Na+].[Na+].[Na+] [sNIR, sodium 2-((1E,3Z,5E)-7-((E)-3,3-dimethyl-5-sulfonato-1-(4-sulfonatobutyl)indolin-2-ylidene)-4-(hex-5-yn-1-ylcarbamoyl)hepta-1,3,5-trien-1-yl)-3,3-dimethyl-1-(4-sulfonatobutyl)-3H-indol-1-ium-5-sulfonate] | 2.5 times | 1.6 times | 3.5 times | 
Pan-8000W: Panitumumab-IRDye800, prepared in a similar fashion [reference compound] |  |  |  | 1.4-1.8 ×
